{
  "source": "patent US20220194938A1",
  "about": "“NOVEL COMPOUNDS AND PHARMACEUTICAL COMPOSITIONS THEREOF FOR THE TREATMENT OF INFLAMMATORY DISORDERS” (GALAPAGOS NV, priority 2019, published 2022)",
  "test_system": "Collagen Induced Arthritis (CIA)",
  "assay": "Mouse collagen induced arthritis (CIA) model",
  "type": "in vivo",
  "details": "mouse CIA, 3, 10 and 30 mg/kg b.i.d., versus disease vehicle group",
  "method": "5.1. CIA Model 5.1.1. Materials Completed Freund's adjuvant (CFA) and incomplete Freund's adjuvant (IFA) were purchased from Difco. Bovine collagen type II (CII), lipopolysaccharide (LPS), and Enbrel was obtained from Chondrex (Isle d'Abeau, France); Sigma (P4252, L'Isle d'Abeau, France), […] (25 mg injectable syringe, France) Acros Organics (Palo Alto, Calif.), respectively. All other reagents used were of reagent grade and all solvents were of analytical grade. 5.1.2. Animals DBA1/J mice (male, 7-8 weeks old) were obtained from Charles River Laboratories (France). Mice were kept on a 12 h light/dark cycle (07 h00-19 h00). Temperature was maintained at 22° C., and food and water were provided ad libitum. 5.1.3. Collagen Induced Arthritis (CIA) One day before the experiment, CII solution (2 mg/mL) was prepared with 0.05 M acetic acid and stored at 4° C. Just before the immunization, equal volumes of adjuvant (IFA) and CII were mixed by a homogenizer in a pre-cooled glass bottle in an ice water bath. Extra adjuvant and prolonged homogenization may be required if an emulsion was not formed. […] Body weight and clinical score, were recorded twice a week. […] Clinical Assessment of Arthritis Arthritis is scored according to the method of (Khachigian 2006; Lin et al. 2007; Nishida et al. 2004). […] Results For each readout, mean and sem were calculated. […]",
  "data": [
    {"smiles": "CNC(=O)c1cc2nc(CCC(C)(C)O)cn2cc1NC(=O)c1cccc(C(F)(F)F)n1", "note": "[Compound 2, 2-(3-hydroxy-3-methyl-butyl)-N-methyl-6-[[6-(trifluoromethyl)pyridine-2-carbonyl]amino]imidazo[1,2-a]pyridine-7-carboxamide]", "values": [
      {"measurement": "effect on bone erosion Larsen Score", "value": "statistically significant effect"}
    ]}
  ]
}
